Reference: US7268131B2, “Substituted [1,4]oxazino[2,3-g]indazoles for the treatment of glaucoma” (Alcon, Inc., priority 2003, dated 2007)
Counter-ions that a name gives are not always drawn.

How the values were obtained:
5-HT2A [1] = biological target: T1, 5-HT2A (Rattus norvegicus, UniProt P14842); test: 5-HT2 Receptor Binding Assay ([125I]DOI competition); settings: competition for [125I]DOI binding, rat or human cerebral cortex homogenates
Protocol: 5-HT2 Receptor Binding Assay
Aliquots of post mortem rat or human cerebral cortex homogenates (400 μL) dispersed in 50 mM Tris HCl buffer (pH 7.4) are incubated with [^125I]DOI (80 pM final) in the absence or presence of methiothepin (10 μM final) to define total and non-specific binding, respectively, in a total volume of 0.5 mL. The assay mixture is incubated for 1 hour at 23° C. in polypropylene tubes and the assays terminated by rapid vacuum filtration over Whatman GF/B glass fiber filters previously soaked in 0.3% polyethyleneimine using ice-cold buffer. Test compounds (at different concentrations) are substituted for methiothepin. Filter-bound radioactivity is determined by scintillation spectrometry on a beta counter. The data are analyzed using a non-linear, iterative curve-fitting computer program [Trends Pharmacol. Sci., 16, 413 (1995)] to determine the compound affinity parameter. The concentration of the compound needed to inhibit the [^125I]DOI binding by 50% of the maximum is termed the IC50 or Ki value.

5-HT2A [2] = biological target: T1, 5-HT2A; test: 5-HT2 functional Assay: [Ca2+]i Mobilization (FLIPR); format: cell-based; set-up: endogenous in cells; host or cells: A7r5 rat vascular smooth muscle cells; settings: for EC50: [Ca2+]i mobilization, A7r5 rat vascular smooth muscle cells, FLIPR; for Emax: percentage of a maximum 5-HT-induced response, A7r5 cells
Protocol: 5-HT2 functional Assay: [Ca^2+]i Mobilization
The receptor-mediated mobilization on intracellular calcium ([Ca^2+]i) was studied using the Fluorescence Imaging Plate Reader (FLIPR) instrument. Rat vascular smooth muscle cells, A7r5, were grown in a normal media of DMEM/10% FBS and 10 μg/mL gentamycin. Confluent cell monolayers were trypsinized, pelleted, and re-suspended in normal media. Cells were seeded in a 50 μL volume at a density of 20,000 cells/well in a black wall, 96-well tissue culture plate and grown for 2 days.
On the day of the experiment, one vial of FLIPR Calcium Assay Kit dye was re-suspended in 50 mL of a FLIPR buffer consisting of Hank's Balanced Salt Solution (HBSS), 20 mM HEPES, and 2.5 mM probenecid, pH 7.4. Cells were loaded with the calcium-sensitive dye by addition of an equal volume (50 μL) to each well of the 96-well plate and incubated with dye for 1 h at 23° C.
Typically, test compounds were stored at 25 μM in 50% DMSO/50% Ethanol solvent. Compounds were diluted 1:50 in 20% DMSO/20% Ethanol. For “hit” screening, compounds were further diluted 1:10 in FLIPR buffer and tested at a final concentration of 10 μM. For dose-response experiments, compounds were diluted 1:50 in FLIPR buffer and serially diluted 1:10 to give a 5- or 8-point dose-response curve.
The compound plate and cell plate were placed in the FLIPR instrument. At the beginning of an experimental run, a signal test was performed to check the basal fluorescence signal from the dye-loaded cells and the uniformity of the signal across the plate. The basal fluorescence was adjusted between 8000-12000 counts by modifying the exposure time, the camera F-stop, or the laser power. Instrument settings for a typical assay were the following: laser power 0.3-0.6 W, camera F-stop F/2, and exposure time 0.4 sec. An aliquot (25 μL) of the test compound was added to the existing 100 μL dye-loaded cells at a dispensing speed of 50 μL/sec. Fluorescence data were collected in real-time at 1.0 sec intervals for the first 60 secs and at 6.0 sec intervals for an additional 120 secs. Responses were measured as peak fluorescence intensity minus basal and where appropriate were expressed as a percentage of a maximum 5-HT-induced response. When the compounds were tested as antagonists against 10 μM 5-HT, they were incubated with the cells for 15 minutes prior to the addition of 5-HT.

T1 sequence (P14842 whole entry): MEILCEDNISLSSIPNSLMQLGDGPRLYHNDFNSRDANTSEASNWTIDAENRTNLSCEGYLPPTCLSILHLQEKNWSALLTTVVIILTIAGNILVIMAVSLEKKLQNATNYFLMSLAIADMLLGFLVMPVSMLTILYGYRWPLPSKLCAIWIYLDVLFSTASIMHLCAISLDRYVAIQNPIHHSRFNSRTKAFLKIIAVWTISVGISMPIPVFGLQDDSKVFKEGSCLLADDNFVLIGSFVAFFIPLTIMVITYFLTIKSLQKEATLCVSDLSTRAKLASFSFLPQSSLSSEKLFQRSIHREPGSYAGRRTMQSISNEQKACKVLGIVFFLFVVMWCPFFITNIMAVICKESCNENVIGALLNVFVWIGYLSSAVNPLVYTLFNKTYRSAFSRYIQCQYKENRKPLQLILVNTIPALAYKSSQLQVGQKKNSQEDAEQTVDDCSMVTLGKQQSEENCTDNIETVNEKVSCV

`C[C@H](N)Cn1ncc2ccc3c(c21)N(C)CCO3.O=C(O)/C=C/C(=O)O` [Example 1, (S)-2-(8,9-dihydro-9-methyl-7H-[1,4]oxazino[2,3-g]indazol-1-yl)-1-methylethylamine fumarate] showed an IC50 (5-HT2A [1]) of 1 nM, a melting point of 185 to 187 °C and an EC50 (5-HT2A [2]) of 20 nM. The Emax (5-HT2A [2]) was 82%.
`C[C@H](N)Cn1ncc2ccc3c(c21)NC(=O)CO3.Cl` [Example 2, 1-((S)-2-Aminopropyl)-1,9-dihydro-7H-[1,4]oxazino[2,3-g]indazol-8-one hydrochloride] showed an IC50 (5-HT2A [1]) of 3.5 nM, a melting point of 293 to 295 °C and an EC50 (5-HT2A [2]) of 195 nM. For the same compound, the Emax (5-HT2A [2]) was 60%.
Compound `C[C@H](N)Cn1ncc2ccc3c(c21)N(C)C(=O)CO3` [Example 3, 1-((S)-2-Aminopropyl)-1,9-dihydro-9-methyl-7H-[1,4]oxazino[2,3-g]indazol-8-one hydrochloride] has an IC50 (5-HT2A [1]) of 7.6 nM, an EC50 (5-HT2A [2]) of 550 nM and an Emax (5-HT2A [2]) of 41%.
